The results in this text go back to EPA's ToxValDB 9.5 (doi:10.2903/j.efsa.2010.1771).

Converted amounts (≈) assume the structure as drawn.

Data set [1] deals with Anas platyrhynchos. As to conditions: short-term; oral; feed; mortality.
In data set [2] the test system is Apis mellifera. As to conditions: acute; duration: 48 hours; oral; unspecified; mortality.
Data set [3] relates to Canidae. As to conditions: oral, Dog Other, hematological.
Data set [4] has as its system Colinus virginianus.
Data set [5] deals with Daphnia magna. The settings on record: chronic/long-term; duration: 21 days; reproduction.
The test system of data set [6] is Oncorhynchus mykiss.
In data set [7] the test system is Rattus norvegicus.
The test system of data set [8] is Tagia sp. The settings on record: acute; mortality.
Data set [9] deals with Typhlodromus pyri. As to conditions: not reported; mortality.

As usually defined, the NOAEL is the highest tested level that showed no adverse finding. In the case of `CCSC(C)CC1CC(=O)C(C(CC)=NOC/C=C/Cl)=C(O)C1` (stereo not drawn) [Clethodim], the LC50 was more than 851 mg/kg-day in [1]; 25 µg/mL (≈ 69.5 µM) in [6] (acute, duration: 96 hours, mortality); 129 mg/kg in [8]. The LD50 in [2] is more than 43 µg/piece; in data set [4] (acute, oral, mortality), more than 1640 mg/kg; in [7] (acute, oral, mortality), 1130 mg/kg. Besides, the NOAEL in [3] (chronic, duration: 1 years) turned out to be 21 mg/kg-day; in data set [3] (subchronic, duration: 90 days) it was 21 mg/kg-day; in [7] (chronic, duration: 2 years, organ weight), 16 mg/kg-day. The same molecule gave an NOEL in [4] (reproduction developmental, reproduction) of 17 mg/kg-day. Further, the NOEC in [5] was 49 mg/L; in data set [6] (chronic/long-term, duration: 21 days), 3.9 mg/L. In addition, the LEL in data set [9] came to 9.6 g/ha.
